Reference: PubChem BioAssay (NCI)
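Growth conditions: 96-well plates. Treatment: test compound, 48 hours, 5 concentrations. Analysis: linear interpolation between bracketing concentrations; unreached endpoints set to highest concentration. Definition used: TGI = concentration required for complete inhibition of growth.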

Columns and labels:
Test in all cases: NCI-60 cell line screen, 48 h
786-0 renal = system: 786-0 renal
MDA-MB-435 = system: MDA-MB-435
BT-549 breast = system: BT-549 breast
RPMI-8226 leukemia = system: RPMI-8226 leukemia
SW-620 colon = system: SW-620 colon
HL-60(TB) leukemia = system: HL-60(TB) leukemia
HCT-15 colon = system: HCT-15 colon
LOX IMVI melanoma = system: LOX IMVI melanoma
SK-MEL-28 melanoma = system: SK-MEL-28 melanoma
SK-OV-3 ovarian = system: SK-OV-3 ovarian
HOP-62 NSCLC = system: HOP-62 NSCLC
HS 578T breast = system: HS 578T breast
HOP-92 NSCLC = system: HOP-92 NSCLC
SNB-19 CNS = system: SNB-19 CNS
UACC-62 melanoma = system: UACC-62 melanoma
CAKI-1 renal = system: CAKI-1 renal
EKVX NSCLC = system: EKVX NSCLC
IGROV1 ovarian = system: IGROV1 ovarian
MOLT-4 leukemia = system: MOLT-4 leukemia
U251 CNS = system: U251 CNS

SMILES: CCOC(=O)N1CCN(c2nc(C)n(-c3ccccc3)c(=S)c2C#N)CC1
- TGI (786-0 renal): > 100 µM
- TGI (MDA-MB-435): > 100 µM
- TGI (BT-549 breast): > 100 µM
- TGI (RPMI-8226 leukemia): > 100 µM
- TGI (SW-620 colon): > 100 µM
- TGI (HL-60(TB) leukemia): > 66.7 µM
- TGI (HCT-15 colon): > 100 µM
- TGI (LOX IMVI melanoma): > 100 µM
- TGI (SK-MEL-28 melanoma): > 100 µM
- TGI (SK-OV-3 ovarian): > 100 µM
- TGI (HOP-62 NSCLC): > 100 µM
- TGI (HS 578T breast): > 100 µM
- TGI (HOP-92 NSCLC): > 100 µM
- TGI (SNB-19 CNS): > 100 µM
- TGI (UACC-62 melanoma): > 100 µM
- TGI (CAKI-1 renal): > 100 µM
- TGI (EKVX NSCLC): > 100 µM
- TGI (IGROV1 ovarian): > 63.4 µM
- TGI (MOLT-4 leukemia): > 100 µM
- TGI (U251 CNS): > 100 µM

SMILES: CC(=O)NC1C(OC2C(CO)OC(OCC3OC(n4ccc(N)nc4=O)C(O)C3O)C(NC(C)=O)C2O)OC(CO)C(O)C1O (stereo not given)
- TGI (786-0 renal): > 100 µM
- TGI (MDA-MB-435): > 100 µM
- TGI (BT-549 breast): > 100 µM
- TGI (RPMI-8226 leukemia): > 100 µM
- TGI (SW-620 colon): > 100 µM
- TGI (HL-60(TB) leukemia): > 100 µM
- TGI (HCT-15 colon): > 100 µM
- TGI (LOX IMVI melanoma): > 100 µM
- TGI (SK-MEL-28 melanoma): > 100 µM
- TGI (SK-OV-3 ovarian): > 100 µM
- TGI (HOP-62 NSCLC): > 100 µM
- TGI (HS 578T breast): > 100 µM
- TGI (HOP-92 NSCLC): > 100 µM
- TGI (SNB-19 CNS): > 100 µM
- TGI (UACC-62 melanoma): > 100 µM
- TGI (CAKI-1 renal): > 100 µM
- TGI (EKVX NSCLC): > 100 µM
- TGI (IGROV1 ovarian): > 100 µM
- TGI (MOLT-4 leukemia): > 100 µM
- TGI (U251 CNS): > 100 µM

SMILES: CCC1c2[nH]c3ccccc3c2C[C@H]2C(=O)N3CCC[C@H]3C(=O)N12 (stereo not given in full)
- TGI (786-0 renal): > 100 µM
- TGI (MDA-MB-435): > 100 µM
- TGI (BT-549 breast): > 100 µM
- TGI (RPMI-8226 leukemia): > 100 µM
- TGI (SW-620 colon): > 100 µM
- TGI (HL-60(TB) leukemia): > 100 µM
- TGI (HCT-15 colon): > 100 µM
- TGI (LOX IMVI melanoma): > 100 µM
- TGI (SK-MEL-28 melanoma): > 100 µM
- TGI (SK-OV-3 ovarian): > 100 µM
- TGI (HOP-62 NSCLC): > 100 µM
- TGI (HS 578T breast): > 100 µM
- TGI (HOP-92 NSCLC): > 100 µM
- TGI (SNB-19 CNS): > 100 µM
- TGI (UACC-62 melanoma): > 100 µM
- TGI (CAKI-1 renal): > 100 µM
- TGI (EKVX NSCLC): > 100 µM
- TGI (IGROV1 ovarian): > 100 µM
- TGI (MOLT-4 leukemia): > 100 µM
- TGI (U251 CNS): > 100 µM

SMILES: Cn1c(=O)cc(N=Nc2ccc(Cl)c(Cl)c2)[nH]c1=O
- TGI (786-0 renal): 31.9 µM
- TGI (MDA-MB-435): 40.5 µM
- TGI (BT-549 breast): 96.2 µM
- TGI (RPMI-8226 leukemia): 71.1 µM
- TGI (SW-620 colon): 58.9 µM
- TGI (HL-60(TB) leukemia): 50.7 µM
- TGI (HCT-15 colon): 38.9 µM
- TGI (LOX IMVI melanoma): 34.3 µM
- TGI (SK-MEL-28 melanoma): 57.5 µM
- TGI (SK-OV-3 ovarian): > 100 µM
- TGI (HOP-62 NSCLC): > 100 µM
- TGI (HS 578T breast): 94 µM
- TGI (HOP-92 NSCLC): 80.4 µM
- TGI (SNB-19 CNS): > 100 µM
- TGI (UACC-62 melanoma): > 100 µM
- TGI (CAKI-1 renal): 28.5 µM
- TGI (EKVX NSCLC): 51.4 µM
- TGI (IGROV1 ovarian): > 100 µM
- TGI (MOLT-4 leukemia): 61 µM
- TGI (U251 CNS): 56.3 µM

SMILES: CCCNC(=O)Cn1c(C)cc2ccccc21
- TGI (786-0 renal): > 100 µM
- TGI (MDA-MB-435): > 100 µM
- TGI (BT-549 breast): > 100 µM
- TGI (RPMI-8226 leukemia): > 100 µM
- TGI (SW-620 colon): > 100 µM
- TGI (HL-60(TB) leukemia): > 100 µM
- TGI (HCT-15 colon): > 100 µM
- TGI (LOX IMVI melanoma): > 100 µM
- TGI (SK-MEL-28 melanoma): > 100 µM
- TGI (SK-OV-3 ovarian): > 100 µM
- TGI (HOP-62 NSCLC): > 100 µM
- TGI (HS 578T breast): > 100 µM
- TGI (HOP-92 NSCLC): > 100 µM
- TGI (SNB-19 CNS): > 100 µM
- TGI (UACC-62 melanoma): > 100 µM
- TGI (CAKI-1 renal): > 100 µM
- TGI (EKVX NSCLC): > 100 µM
- TGI (IGROV1 ovarian): > 100 µM
- TGI (MOLT-4 leukemia): > 100 µM
- TGI (U251 CNS): > 100 µM

SMILES: CNCCCNC1(c2cc3ccccc3s2)CCCCC1
- TGI (786-0 renal): 9.87 µM
- TGI (MDA-MB-435): 5.86 µM
- TGI (BT-549 breast): 29.8 µM
- TGI (RPMI-8226 leukemia): 6.18 µM
- TGI (SW-620 colon): 26.3 µM
- TGI (HL-60(TB) leukemia): 18.9 µM
- TGI (HCT-15 colon): 21.7 µM
- TGI (LOX IMVI melanoma): 9.94 µM
- TGI (SK-MEL-28 melanoma): 3.91 µM
- TGI (SK-OV-3 ovarian): 29.1 µM
- TGI (HOP-62 NSCLC): 22.4 µM
- TGI (HS 578T breast): 29.1 µM
- TGI (HOP-92 NSCLC): 14.8 µM
- TGI (SNB-19 CNS): 24.8 µM
- TGI (UACC-62 melanoma): 3.87 µM
- TGI (CAKI-1 renal): 22.1 µM
- TGI (EKVX NSCLC): 26.4 µM
- TGI (IGROV1 ovarian): 25.5 µM
- TGI (MOLT-4 leukemia): 7.48 µM
- TGI (U251 CNS): 16.4 µM
